Measurements as given in patent US9682013B2, “Pharmaceutical compositions comprising human antibodies to PCSK9” (SANOFI BIOTECHNOLOGY, priority 2011, dated 2017).

Assays:
hPCSK9 = hPCSK9 (Homo sapiens, UniProt Q8NBP7); conditions: unmutated hPCSK9; cited from earlier work
[1] = tested on: patients with an elevated low-density lipoprotein cholesterol (LDL-C) (≧100 mg/dL or 2.59 mmol/L); assay: Study 1: randomized, double-blind, placebo-controlled 12-week study of antibody 316P on stable atorvastatin; assay type: in vivo, human; conditions: for Cholesterol, Week 12 % change from baseline, Mean / Cholesterol, Week 12 % change from baseline, Median / Cholesterol, Week 12, Mean / Cholesterol, Week 12, Median / Cholesterol, Week 12 change from baseline, Mean / Cholesterol, Week 12 change from baseline, Median / LDL Cholesterol, Week 12—% change from baseline, Mean / LDL Cholesterol, Week 12—% change from baseline, Median / Non-HDL Cholesterol, Week 12 % change from baseline, Mean / Non-HDL Cholesterol, Week 12 % change from baseline, Median / LS mean difference vs. placebo in percent change from baseline in LDL-C at 12 weeks: on stable atorvastatin
Protocol: This was a multicenter, randomized, double-blind, parallel-group, placebo-controlled, 12-week study to assess the efficacy and safety of antibody 316P in patients with an elevated low-density lipoprotein cholesterol (LDL-C) (≧100 mg/dL or 2.59 mmol/L), when treated with atorvastatin (10 mg, 20 mg, or 40 mg) at a stable dose for at least 6 weeks. The randomization was stratified by the dose of atorvastatin received prior to randomization. After the double-blind period patients were followed during an 8-week follow-up period. The primary objective of the study was to evaluate the effect of antibody 316P on LDL-C levels after 12 weeks of treatment in comparison with placebo in patients with LDL-C (≧100 mg/dL or 2.59 mmol/L) on ongoing stable atorvastatin therapy.
The following doses/dose regimens were evaluated: 50 mg, 100 mg and 150 mg every 2 weeks (E2W), 200 mg and 300 mg every 4 weeks (E4W) in comparison with placebo.
Present study comprised a total of 122 patients (20 in placebo, 19 in 50 mg E2W group, 20 in 100 mg E2W group, 20 in 150 mg E2W group, 22 in 200 mg E4W group, and 21 in 300 mg E4W group).
Inclusion criteria: • Patients (patients receiving a lipid lowering treatment other than atorvastatin/or not at stable dose of atorvastatin 10 mg, 20 mg or 40 mg for at least 6 weeks prior to screening period or drug naïve patients) with primary hypercholesterolemia likely to have low-density lipoprotein cholesterol (LDL-C)≧100 mg/dL (≧2.59 mmol/L) at the end of the run-in period on atorvastatin therapy (Week-1). • OR • Patients with primary hypercholesterolemia treated with atorvastatin at stable dose of 10 mg, 20 mg, or 40 mg for at least 6 weeks prior to screening period and likely to have LDL-C≧100 mg/dL (≧2.59 mmol/L) at the screening visit Week-1. […]

male Syrian hamster = assay: Study 4: cholesterol lowering effect of 316P alone and with atorvastatin in hamster; assay type: in vivo
Text: This is an animal study on the cholesterol lowering effect of 316P, a fully human PCSK9 blocking monoclonal antibody in male Syrian hamster
The aim of this study was to investigate the effect of 316P, a human monoclonal antibody to human PCSK9, alone and in combination with statins on expression of the hepatic LDLR and the resulting effects on serum LDL-C.
The maximal effect on LDL-C (−17/−27/−60%) was seen within 7 days. PK data of 316P are in line with the dose-dependent effect on LDL-C.

[2] = tested on: patients with heterozygous familial hypercholesterolemia (heFH); assay: Study 6: randomized, placebo-controlled 12-week trial in heFH on statin with or without ezetimibe (interim analysis); assay type: in vivo, human; conditions: every two or four weeks
Protocol: A randomized, double-blind, multi-dose, placebo controlled, 75-patient trial in patients with heterozygous familial hypercholesterolemia (heFH). In this trial, patients must meet the World Health Organization criteria for heFH, be on a stable daly statin regimen for at least 6-weeks before entering the trial, and have serum LDL-C levels ≧100 mg/dL. Patients were permitted to be taking ezetimibe in addition to a daily statin. The primary endpoint of the study is the change in LDL cholesterol from baseline compared to placebo over the 12-week study period.
Patients treated with different doses of 316P achieved mean LDL-C reductions of approximately 30% to greater than 60% from baseline at 12-weeks compared to a 10% reduction with placebo (p<0.01), which was the primary endpoint of the study. The interim analysis was conducted when all patients completed the primary endpoint at 12-weeks.

hPCSK9 D238 mutated = hPCSK9 D238 mutated (Homo sapiens, UniProt Q8NBP7, D238R); conditions: cited from earlier work
[3] = 12 weeks, all doses/dose regimens
[4] = single s.c. injection 1/3/10 mg/kg

hPCSK9 D238 mutated, sequence (Q8NBP7 153-692 D238R): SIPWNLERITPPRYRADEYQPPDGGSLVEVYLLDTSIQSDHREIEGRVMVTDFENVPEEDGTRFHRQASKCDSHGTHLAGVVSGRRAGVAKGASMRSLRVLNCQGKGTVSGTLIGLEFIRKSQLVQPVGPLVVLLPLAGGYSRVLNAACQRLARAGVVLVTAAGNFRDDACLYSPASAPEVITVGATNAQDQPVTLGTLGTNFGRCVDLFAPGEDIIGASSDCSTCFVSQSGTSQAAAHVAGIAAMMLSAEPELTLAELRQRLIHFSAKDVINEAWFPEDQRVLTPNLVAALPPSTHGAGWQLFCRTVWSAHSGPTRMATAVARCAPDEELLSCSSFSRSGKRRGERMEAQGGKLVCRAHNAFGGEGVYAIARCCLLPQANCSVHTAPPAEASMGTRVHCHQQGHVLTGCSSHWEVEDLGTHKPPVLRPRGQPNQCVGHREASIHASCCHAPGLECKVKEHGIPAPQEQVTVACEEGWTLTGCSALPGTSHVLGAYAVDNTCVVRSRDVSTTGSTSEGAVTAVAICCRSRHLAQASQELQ
hPCSK9, sequence (Q8NBP7 153-692): as the sequence (Q8NBP7 153-692 D238R) above, with R86D counted along it

316P: fully human anti-PCSK9 antibody comprising a HCVR as shown in SEQ ID NO: 90 and LCVR as shown in SEQ ID NO: 92 [Antibody 316P]
Kd (hPCSK9): ~1 nM
Cholesterol, Week 12 % change from baseline, Mean ([1]; 50 mg E2W): −24.21%
Cholesterol, Week 12 % change from baseline, Median ([1]; 50 mg E2W): −23.34%
Cholesterol, Week 12, Mean ([1]; 50 mg E2W): 3.974 mmol/L
Cholesterol, Week 12, Median ([1]; 50 mg E2W): 3.937 mmol/L
Cholesterol, Week 12 change from baseline, Mean ([1]; 50 mg E2W): -1.313 mmol/L
Cholesterol, Week 12 change from baseline, Median ([1]; 50 mg E2W): -1.399 mmol/L
LDL Cholesterol, Week 12—% change from baseline, Mean ([1]; 50 mg E2W): −41.06%
LDL Cholesterol, Week 12—% change from baseline, Median ([1]; 50 mg E2W): −37.04%
Non-HDL Cholesterol, Week 12 % change from baseline, Mean ([1]; 50 mg E2W): −35.23%
Non-HDL Cholesterol, Week 12 % change from baseline, Median ([1]; 50 mg E2W): −36.62%
maintenance of LDL-C decrease observed after the first injection ([1]; 100 mg E2W and 150 mg E2W groups, also throughout the interval period between the injections): maintained throughout the study
Cholesterol, Week 12 % change from baseline, Mean ([1]; 100 mg E2W): −38.97%
Cholesterol, Week 12 % change from baseline, Median ([1]; 100 mg E2W): −40.21%
Cholesterol, Week 12, Mean ([1]; 100 mg E2W): 3.288 mmol/L
Cholesterol, Week 12, Median ([1]; 100 mg E2W): 3.238 mmol/L
Cholesterol, Week 12 change from baseline, Mean ([1]; 100 mg E2W): -2.098 mmol/L
Cholesterol, Week 12 change from baseline, Median ([1]; 100 mg E2W): -2.163 mmol/L
LDL Cholesterol, Week 12—% change from baseline, Mean ([1]; 100 mg E2W): −63.90%
LDL Cholesterol, Week 12—% change from baseline, Median ([1]; 100 mg E2W): −64.28%
LS mean difference vs. placebo in percent change from baseline in LDL-C at 12 weeks ([1]; 100 mg E2W): −58.36%
Non-HDL Cholesterol, Week 12 % change from baseline, Mean ([1]; 100 mg E2W): −54.78%
Non-HDL Cholesterol, Week 12 % change from baseline, Median ([1]; 100 mg E2W): −55.91%
number of patients with LDL-C reduction from baseline >50% at week 12 ([1]; 150 mg E2W group, among 18 patients): 17
Cholesterol, Week 12 % change from baseline, Mean ([1]; 150 mg E2W): −45.21%
Cholesterol, Week 12 % change from baseline, Median ([1]; 150 mg E2W): −45.03%
Cholesterol, Week 12, Mean ([1]; 150 mg E2W): 2.922 mmol/L
Cholesterol, Week 12, Median ([1]; 150 mg E2W): 2.823 mmol/L
Cholesterol, Week 12 change from baseline, Mean ([1]; 150 mg E2W): -2.466 mmol/L
Cholesterol, Week 12 change from baseline, Median ([1]; 150 mg E2W): -2.331 mmol/L
LDL Cholesterol, Week 12—% change from baseline, Mean ([1]; 150 mg E2W): −72.68%
LDL Cholesterol, Week 12—% change from baseline, Median ([1]; 150 mg E2W): −74.83%
LS mean difference vs. placebo in percent change from baseline in LDL-C at 12 weeks ([1]; 150 mg E2W): −68.78%
Non-HDL Cholesterol, Week 12 % change from baseline, Mean ([1]; 150 mg E2W): −63.71%
Non-HDL Cholesterol, Week 12 % change from baseline, Median ([1]; 150 mg E2W): −65.94%
Cholesterol, Week 12 % change from baseline, Mean ([1]; 200 mg E4W): −29.54%
Cholesterol, Week 12 % change from baseline, Median ([1]; 200 mg E4W): −29.51%
Cholesterol, Week 12, Mean ([1]; 200 mg E4W): 3.709 mmol/L
Cholesterol, Week 12, Median ([1]; 200 mg E4W): 3.587 mmol/L
Cholesterol, Week 12 change from baseline, Mean ([1]; 200 mg E4W): -1.596 mmol/L
Cholesterol, Week 12 change from baseline, Median ([1]; 200 mg E4W): -1.716 mmol/L
LDL Cholesterol, Week 12—% change from baseline, Mean ([1]; 200 mg E4W): −47.23%
LDL Cholesterol, Week 12—% change from baseline, Median ([1]; 200 mg E4W): −49.46%
LS mean difference vs. placebo in percent change from baseline in LDL-C at 12 weeks ([1]; 200 mg E4W): −42.53%
Non-HDL Cholesterol, Week 12 % change from baseline, Mean ([1]; 200 mg E4W): −40.07%
Non-HDL Cholesterol, Week 12 % change from baseline, Median ([1]; 200 mg E4W): −39.91%
decrease in LDL-C during the interval periods ([1]; 200 mg and 300 mg E4W groups): at least −40%
Cholesterol, Week 12 % change from baseline, Mean ([1]; 300 mg E4W): −29.61%
Cholesterol, Week 12 % change from baseline, Median ([1]; 300 mg E4W): −33.48%
Cholesterol, Week 12, Mean ([1]; 300 mg E4W): 3.778 mmol/L
Cholesterol, Week 12, Median ([1]; 300 mg E4W): 3.393 mmol/L
Cholesterol, Week 12 change from baseline, Mean ([1]; 300 mg E4W): -1.638 mmol/L
Cholesterol, Week 12 change from baseline, Median ([1]; 300 mg E4W): -2.020 mmol/L
LDL Cholesterol, Week 12—% change from baseline, Median ([1]; 300 mg E4W): −51.98%
LS mean difference vs. placebo in percent change from baseline in LDL-C at 12 weeks ([1]; 300 mg E4W): −42.26%
Non-HDL Cholesterol, Week 12 % change from baseline, Mean ([1]; 300 mg E4W): −41.17%
Non-HDL Cholesterol, Week 12 % change from baseline, Median ([1]; 300 mg E4W): −45.55%
tolerability ([1]; 12 weeks of treatment, all tested doses/dose regimens): well tolerated
ApoB [1, 3]: decrease
Total-C [1, 3]: decrease
non HDL-C [1, 3]: decrease
HDL-C ([1]; 12 weeks, all groups): trend of increase
percent change from baseline in LDL-C at 12 weeks compared to the placebo group ([1]; all groups): Statistically significant decreases
troponin levels ([1]; all treatment groups): no change
LDL-C mean values over 12 weeks and LOCF (FIG. 6, words) ([1]; all treatment groups except placebo, whole study period): significant and persistent reduction of LDL-C levels
LDLR expression (male Syrian hamster; 316P on top of Atorvastatin): increased LDLR expression
serum LDL-C (male Syrian hamster; 316P on top of Atorvastatin): decreased serum LDL-C
statin resistance (male Syrian hamster; 316P on top of Atorvastatin): could overcome the statin resistance
combination treatment compared with single treatment (male Syrian hamster; 316P plus Atorvastatin): more effective than single treatment with 316P alone
maximal effect on LDL-C (male Syrian hamster; single s.c. injection 1 mg/kg): −17%
maximal effect on LDL-C (male Syrian hamster; single s.c. injection 3 mg/kg): −27%
maximal effect on LDL-C (male Syrian hamster; single s.c. injection 10 mg/kg): −60%
duration of dose-dependent decrease in LDL-C (male Syrian hamster; [4]): more than 2 weeks
time to maximal effect on LDL-C (male Syrian hamster; [4]): ≤ 7 days
mean LDL-C reductions at 12-weeks compared to placebo [2]: significantly greater mean LDL-C reductions
T1/2 decrease (hPCSK9 D238 mutated; D238 mutated vs unmutated): > 30 fold
reduction in binding affinity (hPCSK9 D238 mutated; D238 mutated vs unmutated): > 400 fold
Kd (hPCSK9 D238 mutated; D238 mutated): ~410 nM
